According to patent US20250091989A1, “SMALL MOLECULE PROTEIN SYNTHESIS MODULATORS” (Interdict Bio, Inc., priority 2023, published 2025):

Tests used:
Assay type in all cases: biochemical
Conditions in all cases: HeLa S3 lysate, sfGFP/mCherry ratio, 2 hrs at 30° C.
MYC = experiment: In vitro transcription-translation (IVTT) reporter assay, MYC test sequence
Source text: (§1) All reporter constructs have been cloned into the pT7CFE1-CHis plasmid (ThermoFisher #88860) using Gibson assembly procedures (NEB #E2611L). The parental pT7CFE1-CHis plasmid contains an EMCV IRES at the 5′UTR for translation initiation, a multiple-cloning site (MCS) for gene insertion, an optional C-terminal His-epitope tag, and polyA sequence in the 3′UTR to regulate mRNA stability. All reporters are designed to be inserted at the MCS to include a red fluorescent protein (mCherry), P2A self-cleaving peptide which releases the preceding mCherry protein product, and a fusion open reading frame containing a 3×FLAG epitope, a peptide sequence of interest (TEST), and green fluorescent protein (sfGFP).
(§2) Construct Plasmid Preparation: All plasmids are isolated from MACH1 cells (ThermoFisher) grown overnight in ampicillin-containing luria broth, and purified using ZymoPure Express Plasmid Midiprep Kit (Zymo Research). Constructs are sequenced verified and diluted to a working concentration of 110 ng/μL.
(§3) HeLa S3 Lysate Preparation: HeLa S3 cell pellets are acquired from Ipracell/Ipratech (Belgium) and shipped as 4 mL frozen cell pellets on dry ice for storage at −80° C. until use. The procedure for lysate preparation is as follows. Prepare 1× Lysis Buffer, cold and stored on ice:
(§4) Each preparation takes 8 cell pellets (4 ml packed volume each, approximately 1.0×10^9 cells per pellet). Thaw cell pellets from −80° C. on ice for 90 mins. Lay pellets horizontally on top of the ice and rotate every 30 mins to ensure even thawing. Once thawed, add 4 mL of cold lysis buffer to each pellet, and using a serological pipet, gently pipet up and down to break up clumps. Incubate resuspended cells in ice for an additional 30 mins (plunged into ice). During 30 min incubation, rinse and RNase-zap (Ambion) glass dounces (use loose pestle “A”), gently dry and place on ice until needed. Prepare RNase-free Eppendorf tubes for spinning and for batch storage. Add batch labels to 1.5-1.7 mL RNase-free microcentrifuge tubes (labeling scheme below). Each batch will have an extra 1.5-1.7 mL RNase-free microcentrifuge tube for 40 μL of lysate, label the top of this tube (labeling scheme below). After 30 min incubation, transfer all 8 mL of cell pellet to dounce. Cell lysis is complete after douncing 100 times. Aliquot cell lysis into 1.5-1.7 mL temporary-microcentrifuge tubes. Place tubes in centrifuge with “fins” out, and spin at 1,200 xg for 5 mins. After the first spin use a 1 mL pipet to resuspend each tube and repeat spin. This acts as an additional lysis step, is more vigorous and increases lysate yield. During second spin get liquid N2 and a fresh conical tube on ice.
(§5) After spin is complete, transfer supernatant (lysate) from microcentrifuge tubes into the 50 mL conical tube and keep on ice. Repeat steps 10-14 for all other cell pellets until completed. Once all cell lysate has been transferred to the 50 mL conical tube pipet to mix so the solution is homogenous. Transfer 1 mL of lysate into batch-labeled microcentrifuge tubes and flash freeze in liquid nitrogen. Be sure to pipet up and down to mix throughout transfer step. Place all tubes in the […] for long-term storage.
(§6) In vitro transcription-translation assay setup: Each assay includes a master mix containing lysate and shared components, a 96-well plate containing compound titrations for testing, a 96-well DNA plate with reporter constructs to be tested, 96-well skirted PCR plates, and 96-well flat-bottom, black, fluorescent assay plates. […]

KRAS G12D = experiment: In vitro transcription-translation (IVTT) reporter assay, KRAS G12D test sequence
Source text: as §1, §2, §3, §4, §5, §6

ALK = experiment: In vitro transcription-translation (IVTT) reporter assay, ALK test sequence
Source text: as §1, §2, §3, §4, §5, §6

Row | Structure (SMILES) | IC50 (MYC) [µM] | IC50 (KRAS G12D) [µM] | IC50 (ALK) [µM]
1 | COc1ccc(C[C@H]2NC[C@H](O)[C@H]2OC(=O)C2CCCS2)cc1 (stereo partly drawn) [V186774, (2R,3S,4S)-4-hydroxy-2-[(4-methoxyphenyl)methyl]pyrrolidin-3-yl thiolane-2-carboxylate] | 20 to 30 | > 30 | –
2 | COc1ccc(C[C@H]2NC[C@H](O)[C@H]2OC(=O)CNc2c(NCc3ccccc3)c(=O)c2=O)cc1 [V187517, (2R,3S,4S)-4-hydroxy-2-[(4-methoxyphenyl)methyl]pyrrolidin-3-yl 2-{[2-(benzylamino)-3,4-dioxocyclobut-1-en-1-yl]amino}acetate; trifluoroacetic acid] | – | 20 to 30 | < 10
3 | COc1ccc(C[C@H]2NC[C@H](O)[C@H]2OC(=O)Cc2ccc(F)c(Cl)c2)cc1 [V187164, (2R,3S,4S)-4-hydroxy-2-[(4-methoxyphenyl)methyl]pyrrolidin-3-yl 2-(3-chloro-4-fluorophenyl)acetate; trifluoroacetic acid] | < 10 | < 10 | –
4 | COc1ccc(C[C@H]2NC[C@H](O)[C@H]2OC(=O)C2CSSC2)cc1 [V186868, (2R,3S,4S)-4-hydroxy-2-[(4-methoxyphenyl)methyl]pyrrolidin-3-yl 1,2-dithiolane-4-carboxylate; trifluoroacetic acid] | – | > 30 | > 30
5 | CCCC(CCC)C(=O)O[C@@H]1[C@@H](O)CN[C@@H]1Cc1ccc(OC)cc1 [V186780] | – | > 30 | –
6 | COc1ccc(C[C@H]2NC[C@H](O)[C@H]2OC(=O)Cc2ccc(F)cc2)cc1 [V187054, (2R,3S,4S)-4-hydroxy-2-[(4-methoxyphenyl)methyl]pyrrolidin-3-yl 2-(4-fluorophenyl) acetate] | < 10 | < 10 | –
7 | COc1ccc(C[C@H]2NC[C@H](O)[C@H]2OC(=O)COC2CC2)cc1 [V187169, (2R,3S,4S)-4-hydroxy-2-[(4-methoxyphenyl)methyl]pyrrolidin-3-yl 2-cyclopropoxyacetate; trifluoroacetic acid] | < 10 | < 10 | –
8 | COc1ccc(C[C@H]2NC[C@H](O)[C@H]2OC(=O)C2CCOCC2)cc1 [V186763, (2R,3S,4S)-4-hydroxy-2-[(4-methoxyphenyl)methyl]pyrrolidin-3-yl oxane-4-carboxylate] | – | > 30 | > 30
9 | COc1ccc(C[C@H]2NC[C@H](O)[C@H]2OC(=O)CCC2C(=O)N(C)CC(=O)N2C)cc1 (stereo partly drawn) [V186871, (2R,3S,4S)-4-hydroxy-2-[(4-methoxyphenyl)methyl]pyrrolidin-3-yl 3-(1,4-dimethyl-3,6-dioxopiperazin-2-yl)propanoate; trifluoroacetic acid] | 20 to 30 | > 30 | –
10 | COc1ccc(C[C@H]2NC[C@H](O)[C@H]2OC(=O)COC2CC(F)(F)C2)cc1 [V187171, (2R,3S,4S)-4-hydroxy-2-[(4-methoxyphenyl)methyl]pyrrolidin-3-yl 2-(3,3-difluorocyclobutoxy)acetate; trifluoroacetic acid] | – | < 10 | < 10
11 | CC(=O)O[C@@H]1[C@@H](O)CN[C@@H]1Cc1ccc(-c2ccccc2)cc1 [V186811] | < 10 | < 10 | –
12 | COc1ccc(C[C@H]2NC[C@H](O)[C@H]2OC(=O)C2CC3(CNC3)C2)cc1 [V0108, (2R,3S,4S)-4-hydroxy-2-[(4-methoxyphenyl)methyl]pyrrolidin-3-yl 2-azaspiro[3.3]heptane-6-carboxylate] | > 30 | > 30 | –
13 | COc1ccc(C[C@H]2NC[C@H](O)[C@H]2OC(=O)C2CC(O)C2)cc1 (stereo partly drawn) [V186765] | < 10 | 10 to 20 | –
14 | COc1ccc(C[C@H]2NC[C@H](O)[C@H]2OC(=O)Cc2ccccc2)cc1 [V0110, (2R,3S,4S)-4-hydroxy-2-[(4-methoxyphenyl)methyl]pyrrolidin-3-yl 2-phenylacetate] | < 10 | < 10 | –
